From patent US5140011A, “Amino acid derivatives which have renin inhibiting activity” (Hoffmann-La Roche, Inc., priority 1989, dated 1992)

biological target: T1, human renin (Homo sapiens, UniProt P00797); experiment: In vitro test with pure human renin; assay type: biochemical; conditions: human tetradecapeptide renin substrate (hTD), pH 7.4, 3 hours at 37° C. vs 4° C., angiotensin I measured via RIA
T1 sequence (P00797 67-406): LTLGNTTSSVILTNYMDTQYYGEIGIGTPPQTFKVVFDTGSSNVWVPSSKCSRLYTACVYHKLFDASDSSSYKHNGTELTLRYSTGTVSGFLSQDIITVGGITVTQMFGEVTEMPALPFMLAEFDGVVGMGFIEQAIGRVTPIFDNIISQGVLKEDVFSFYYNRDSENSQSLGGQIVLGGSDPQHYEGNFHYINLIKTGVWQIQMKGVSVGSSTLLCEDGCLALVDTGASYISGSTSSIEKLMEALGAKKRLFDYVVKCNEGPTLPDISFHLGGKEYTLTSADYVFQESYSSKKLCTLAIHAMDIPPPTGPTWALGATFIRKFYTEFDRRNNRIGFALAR
Description: In vitro test with pure human renin
The test is carried out in Eppendorf test tubes. The incubation mixture consists of (1) 100 μl of human renin in buffer A (0.1M sodium phosphate solution, pH 7.4, containing 0.1% bovine serum albumin, 0.1% sodium azide and 1 mM ethylenediaminetetraacetic acid), sufficient for a renin activity of 2-3 ng of angiotensin I/ml/hr.; (2) 145 μl of buffer A; (3) 30 μl of a 10 μM human tetradecapeptide renin substrate (hTD) in 10 mM hydrochloric acid; (4) 15 μl of dimethyl sulphoxide with or without inhibitor and (5) 10 μl of a 0.03 molar solution of hydroxyquinoline sulphate in water.
The samples are incubated for 3 hours at 37° C. or 4° C. in triplicate. 2×100 μl samples per experimental test tube are used in order to measure the production of angiotensin I via RIA (standard radioimmunoassay; clinical assay solid phase kit). Cross reactivities of the antibody used in the RIA are: angiotensin I 100%; angiotensin II 0.0013%; hTD (angiotensin I-Val-Ile-His-Ser-OH) 0.09%. The production of angiotensin I is determined by the difference between the experiment at 37° C. and that at 4° C.
The following controls are carried out:
(a) Incubation of hTD samples without renin and without inhibitor at 37° C. and 4° C. The difference between these two values gives the base value of angiotensin I production.
(b) Incubation of hTD samples with renin, but without inhibitor at 37° C. and 4° C. The difference between these values give the maximal value of angiotensin I production.
In each sample the base value of the angiotensin I production is subtracted from the angiotensin I production which is determined. The difference between the maximal value and the base value gives the value of the maximal substrate hydrolysis (=100%) by renin.
The results are given as IC50 values which denote that concentration of the inhibitor at which the enzymatic activity is inhibited by 50%. The IC50 values are determined from a linear regression curve from a logit-log plot.

Row | Structure (SMILES) | IC50
1 | CCCCNC(=O)C[C@@H](C[C@H](O)[C@H](CC1CCCCC1)NC(=O)[C@H](Cc1c[nH]cn1)NC(=O)[C@@H](CC(=O)C(C)(C)C)Cc1ccccc1)C(C)C [A, (S)-N-[(1S,2S,4R)-4-[(Butylcarbamoyl)methyl]-1-(cyclohexylmethyl)-2-hydroxy-5-methylhexyl]-α-[(R)-α-(3,3-dimethyl-2-oxobutyl)hydrocinnamamido]imidazole-4-propionamide] | 3 nM
2 | CCCCCC(=O)[C@@H](C[C@H](O)[C@H](CC1CCCCC1)NC(=O)[C@H](Cc1c[nH]cn1)NC(=O)[C@@H](CC(=O)C(C)(C)C)Cc1ccccc1)C(C)C [C, (S)-N-[(1S,2S,4S)-1-(cyclohexylmethyl)-2-hydroxy-4-isopropyl-5-oxodecyl]-α-[(R)-α-(3,3-dimethyl-2-oxobutyl]hydrocinnamamido]imidazole-4-propionamide] | 7 nM
3 | CC(C)[C@@H](/C=C/C(=O)NCc1ccccn1)C[C@H](O)[C@H](CC1CCCCC1)NC(=O)[C@H](Cc1c[nH]cn1)NC(=O)[C@@H](CC(=O)C(C)(C)C)Cc1ccccc1 [D, (S)-N-[(1S,2S,4S,E)-1-(cyclohexylmethyl)-2-hydroxy-4-isopropyl-6-[(2-pyridylmethyl)carbamoyl]-5-hexenyl]-α-[(R)-α-(3,3-dimethyl-2-oxobutyl)hydrocinnamamido]imidazole-4-propionamide] | 13 nM
4 | CCCCNC(=O)C[C@@H](C[C@H](O)[C@H](CC1CCCCC1)NC(=O)[C@H](Cc1c[nH]cn1)NC(=O)[C@H](Cc1ccccc1)NC(=O)OC(C)(C)C)C(C)C [B, t-butyl [(S)-α-[[(S)-1-[[(1S,2S,4R)-4-[(butylcarbamoyl)methyl]-1-(cyclohexylmethyl)-2-hydroxy-5-methylhexyl]carbamoyl]-2-imidazol-4-ylethyl]carbamoyl]phenethyl]carbamate] | 9 nM

Next, values leading:

Row | IC50 | Structure (SMILES)
5 | 4 nM | CC(C)C(CC(O)C(CC1CCCCC1)NC(=O)C(Cc1c[nH]cn1)NC(=O)C(Cc1ccccc1)NC(=O)C1CCCN1C(=O)OC(C)(C)C)C(O)CNCCc1ccccc1 (single isomer, unassigned) [H, (2R or S,3S,5S,6S)-6-(Boc-D-Pro-Phe-His-NH)-7-cyclohexyl-3-isopropyl-1-(phenethylamino)-2,5-heptanediol]
6 | 11 nM | CC(C)C(CC(O)C(CC1CCCCC1)NC(=O)C(Cc1c[nH]cn1)NC(=O)C(Cc1ccccc1)NC(=O)C1CCCN1C(=O)OC(C)(C)C)C(O)CNCCc1ccccc1 (single isomer, unassigned) [G, (2S or R,3S,5S,6S)-6-(Boc-D-Pro-Phe-His-NH)-7-cyclohexyl-3-isopropyl-1-(phenethylamino)-2,5-heptanediol]
7 | 8 nM | CC(C)C(CC(O)C(CC1CCCCC1)NC(=O)C(Cc1c[nH]cn1)NC(=O)C(Cc1ccccc1)NC(=O)C1CCCN1C(=O)OC(C)(C)C)C(O)CNCc1ccccn1 (racemic) [I, (2RS,3S,5S,6S)-6-(Boc-D-Pro-Phe-His-NH)-7-cyclohexyl-3-isopropyl-1-[(2-pyridylmethyl)amino]-2,5-heptanediol]
8 | 10 nM | CC(C)[C@@H](CCOC(=O)C(C)(C)C)C[C@H](O)[C@H](CC1CCCCC1)NC(=O)C(Cc1c[nH]cn1)NC(=O)[C@H](Cc1ccccc1)NC(=O)[C@H]1CCCN1C(=O)OC(C)(C)C (mixture of isomers) [F, t-butyl (R)-2-[[(S)-α-[[(R and S)-1-[[(1S,2S,4S)-1-(cyclohexylmethyl]-2-hydroxy-4-isopropyl-6-(pivaloyloxy)hexyl]carbamoyl]-2-imidazol-4-ylethyl]carbamoyl]phenethyl]carbamoyl]-1-pyrrolidinecarboxylate]
9 | 9 nM | CCC(=O)OCC[C@@H](C[C@H](O)[C@H](CC1CCCCC1)NC(=O)[C@H](Cc1c[nH]cn1)NC(=O)[C@H](Cc1ccccc1)NC(=O)OC(C)(C)C)C(C)C [E, t-butyl [(S)-α-[[(S)-1-[[(1S,2S,4S)-1-(cyclohexylmethyl)-2-hydroxy-4-isopropyl-6-(propionyloxy)hexyl]carbamoyl]-2-imidazol-4-ylethyl]carbamoyl]phenethyl]carbamate]
